The values below come from PubChem BioAssay AID1959 (Broad Institute, 2009).

The source made the active and inactive calls.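 Rule for the calls: active = growth-inhibition EC50 no more than tenfold above the top tested dose; inconclusive = flat fit between 30% and 70% inhibition, or unreliable fit; inactive = EC50 more than tenfold above the top tested dose.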

The test relates to E. coli NEB5alpha growth, BacTiter-Glo luminescence, 4 h. Kind of test: Escherichia coli growth inhibition, dose response, counter-screen for MEX-5/POS-1 RNA-binding inhibitor project, luminescence, NEB5alpha (AID 1959).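 Note: pUC19-transformed ampicillin-resistant cells grown in LB with ampicillin.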 On the technique in general: Counterscreens check selectivity or assay interference.
On to `COc1ccc(-n2c(O)c(/C=C3\C=Nc4ccc(Br)cc43)c(=O)[nH]c2=O)c(OC)c1`, for which the EC50 (usually the concentration at which the effect is half-maximal) is > 11 µM (inactive).

With `CC1C2(C)OC(=N)C(C#N)(C(C)O2)C1(C#N)C#N` (centres undefined), the EC50 is > 11 µM (inactive).

Consider `O=C(/C=C/c1ccc(OCCCF)cc1)Nc1ccnc(-c2cccnc2)n1`, for which the EC50 is > 11 µM (inactive).

With `COc1ccc2c3c([nH]c2c1)C1CC2C(CC(O)C(OC)C2C(=O)O)CN1CC3` (centres undefined), the EC50 was > 11 µM (inactive).

Turning to `O=C(O)c1ccccc1N/N=C/c1c(Sc2nnnn2-c2ccccc2)nc2ccccn2c1=O`, the EC50 was > 11 µM (inactive).

Turning to `Clc1cccc(CSc2nc3ccncc3[nH]2)c1`, the EC50 was > 11 µM (inactive).

Take `COC(=O)CCC(=O)OC1(C)C(=O)C=C2C=C(C3CC3)N(c3ccc(CO)cc3)C=C2C1=O` (centres undefined): the EC50 was > 11 µM (inactive).

In the case of `COC(=O)c1ccc(-n2c(C)ccc2-c2ccccc2)cc1`, the EC50 is > 11 µM (inactive).

Take `CC(=O)NCCNc1ccc([N+](=O)[O-])cc1C#N`: the EC50 was > 11 µM (inactive).

`CCN(CC)C(=O)c1ccc2c(c1)C1C=CCC1C(C(=O)O)N2` (centres undefined): the EC50 is > 11 µM (inactive).

Turning to `COC/C=C/C1=CC2=CC(=O)C(C)(OC(=O)C3CCCC3)C(=O)C2=CO1` (centres undefined), the EC50 is > 11 µM (inactive).

Turning to `CCOC(=O)[C@]1(C#N)[C@@H]2C=CC(C(C)=O)=CN2[C@@H](C(N)=O)[C@@H]1c1ccsc1`, the EC50 is > 11 µM (inactive).

Turning to `O=C(NCCO)c1ccc2nc(-c3ccco3)c(-c3ccco3)nc2c1`, the EC50 is > 11 µM (inactive).

As to `COc1ccccc1OCC(=O)N/N=C/c1c(O)ccc2ccccc12`, the EC50 was > 11 µM (inactive).

On to `O=C(N/N=C/c1cccn1-c1cccc(C(=O)O)c1)Nc1ccccc1`, for which the EC50 was > 11 µM (inactive).

In the case of `CC(C)(C)NC(=S)NCCc1ccccc1`, the EC50 is > 11 µM (inactive).

As to `Cc1cccn2c(=O)c3cc(C(=O)NC4CCCCC4)c(=N)n(Cc4ccccc4)c3nc12`, the EC50 was > 11 µM (inactive).

In the case of `COc1ccc(OC)c(-n2c(O)c(/C=C3\C=Nc4ccccc43)c(=O)[nH]c2=O)c1`, the EC50 is > 11 µM (inactive).

Take `CCOCCCn1c(=NC(=O)c2ccc(OC)c(OC)c2)c(C#N)cc2c(=O)n3cccc(C)c3nc21`: the EC50 was > 11 µM (inactive).

Turning to `Cc1cc([N+](=O)[O-])cc2c1NCC1CC=CC21` (centres undefined), the EC50 was > 11 µM (inactive).

On to `CC1(OC(=O)c2cccs2)C(=O)C=C2C=C(c3ccc(C#N)cc3)OC=C2C1=O` (centres undefined), for which the EC50 is > 11 µM (inactive).

For the compound `CCOc1cc(/C=C2\C(=N)N3N=C(S(C)(=O)=O)SC3=NC2=O)ccc1OCCOc1cccc(OC)c1`, the EC50 was > 11 µM (inactive).

For `CC(C)CNC(=O)C1Nc2ccc(C(F)(F)F)cc2C2C=CCC12` (centres undefined), the EC50 was > 11 µM (inactive).

On to `CC1=Nc2ccc(C)cc2/C1=C/c1c(N)n2nc(CC(=O)N3CCOCC3)sc2nc1=O`, for which the EC50 is > 11 µM (inactive).

As for `CCOC(=O)c1ccc(N/C=C2\CCCCC2=O)cc1`, the EC50 is > 11 µM (inactive).

Take `Cc1ccc(Nc2ccc([N+](=O)[O-])ccc2=O)cc1`: the EC50 was > 11 µM (inactive).

With `CC(=O)Oc1oc(-c2ccccc2)nc1C=Nc1ccc(N(C)C)cc1`, the EC50 is > 11 µM (inactive).

For the compound `CC(=O)Nc1cccc(Oc2nc(-c3ccccn3)nc3ccccc23)c1`, the EC50 is > 11 µM (inactive).

`Cn1c(N=Nc2ccc(N3CCOCC3)cc2)[n+](C)c2ccccc21`: the EC50 was > 11 µM (inactive).

With `CN(C)c1ccc(N=Cc2c(O)n(CCC3=CCCCC3)c(=O)[nH]c2=O)cc1`, the EC50 was > 11 µM (inactive).

With `Oc1ccc(/C=N/Nc2ncnc3nc[nH]c23)cc1`, the EC50 is > 11 µM (inactive).

Turning to `COc1ccc2c(c1)S/C(=C\C(=O)c1ccncc1)N2C`, the EC50 was > 11 µM (inactive).

Regarding `CCN(CC)c1ccc(C=N/C(C#N)=C(\N)C#N)cc1`, the EC50 is > 11 µM (inactive).

As for `COc1ccccc1N1C(=O)NC(=O)/C(=C/c2ccc([N+](=O)[O-])s2)C1=O`, the EC50 was > 11 µM (inactive).

`COc1ccc(Nc2nc3ccccc3nc2NS(=O)(=O)c2cccs2)cc1`: the EC50 was > 11 µM (inactive).

For the compound `N#CC1=C(N)Oc2ccc3ccc(O)cc3c2C1c1ccsc1` (centres undefined), the EC50 was > 11 µM (inactive).

As to `O=C(/C=C/c1ccco1)NC(=S)Nc1ccc(C(=O)O)cc1`, the EC50 is > 11 µM (inactive).

On to `Cc1cc(/C=C2\C(=O)NC(=O)N(c3ccc(Cl)cc3)C2=O)c(C)n1-c1cccc(C(=O)O)c1`, for which the EC50 is > 11 µM (inactive).

For the compound `Cc1cc(C)c2c(c1)NC(c1cc3c(cc1Br)OCO3)C1CC=CC21` (centres undefined), the EC50 is > 11 µM (inactive).

`Nc1c(NCCC2=CCCCC2)c(=O)[nH]c(=O)n1Cc1ccccc1`: the EC50 was > 11 µM (inactive).

For `O=c1[nH]c(CSc2ncccn2)nc2c1cnn2-c1ccccc1`, the EC50 was > 11 µM (inactive).

As for `Cc1nc(-c2ccc(O)c(O)c2)cs1`, the EC50 is > 11 µM (inactive).

On to `O=C(NNC(=O)c1cnccn1)c1ccc(Cl)cc1`, for which the EC50 is > 11 µM (inactive).

Take `CCn1cc(C=C2C(=O)NC(=O)NC2=O)c2ccccc21`: the EC50 was > 11 µM (inactive).

As to `O=C(CN1C(=O)C2CC=C(Cl)CC2C1=O)NCc1ccccc1` (centres undefined), the EC50 is > 11 µM (inactive).

As to `N=c1c(C(=O)NCC2CCCO2)cc2c(=O)n3ccccc3nc2n1Cc1ccccc1Cl` (centres undefined), the EC50 is > 11 µM (inactive).

As for `Cc1cc(C)nc(NNC2=CC(=O)CC(C)(C)C2)n1`, the EC50 was > 11 µM (inactive).

As for `O=C(NNC(=S)NC(=O)c1ccccc1[N+](=O)[O-])c1ccccc1O`, the EC50 is > 11 µM (inactive).

As for `O=c1[nH]c(=O)n(-c2ccc(Cl)cc2)c(O)c1C=NCCN1CCCCC1`, the EC50 is > 11 µM (inactive).

On to `c1ccc2oc(CCc3nc4ccccc4o3)nc2c1`, for which the EC50 was > 11 µM (inactive).

Consider `Cc1ccc(-n2ncc3c(NNC(=O)c4ccco4)ncnc32)cc1C`, for which the EC50 was > 11 µM (inactive).

For the compound `CCOC(=O)C1=C(C)OC(N)=C(C#N)C1c1ccc(O)c(OC)c1` (centres undefined), the EC50 is > 11 µM (inactive).

In the case of `Cc1ccc(/C=N/NC(=O)c2nnn(-c3nonc3N)c2-c2cccs2)cc1`, the EC50 is > 11 µM (inactive).

In the case of `c1ccc(C2=NNC(c3ccccn3)=NN2)nc1`, the EC50 was > 11 µM (inactive).

Take `Cc1ccc2ccc(C3C(=O)c4ccccc4C3=O)nc2c1`: the EC50 was > 11 µM (inactive).

`O=C(Nc1ccccc1)c1nn(-c2ccccc2)c(=O)cc1C(F)(F)F`: the EC50 was > 11 µM (inactive).

For the compound `O=C(NNC(=O)c1csc(-c2cccnc2)n1)c1ccccc1`, the EC50 was > 11 µM (inactive).

`CC1=CC(C)(C)N2C(=O)C3(C(C#N)=C(N)OC4=C3C(=O)CC(C)(C)C4)c3cccc1c32` (centres undefined): the EC50 is > 11 µM (inactive).

As for `C#CCOCCOCCOCCNc1nc(N2CCN(C(=O)[C@H]([C@@H](C)CC)n3cc([C@@H](N)CO)nn3)CC2)nc(N2CCN(C(=O)[C@H]([C@@H](C)CC)n3cc([C@@H](N)CC(C)C)nn3)CC2)n1`, the EC50 was > 11 µM (inactive).

On to `C=CCN1C(=O)/C(=C2/Sc3ccccc3N2CC)SC1=S`, for which the EC50 was > 11 µM (inactive).

`Cc1noc(C)c1S(=O)(=O)NC1CCN(Cc2ccccc2)CC1`: the EC50 is > 11 µM (inactive).

On to `Cc1[nH][nH]c(=O)c1C(c1ccc(-c2cccc(C(=O)O)c2)o1)c1c(C)[nH][nH]c1=O`, for which the EC50 was > 11 µM (inactive).

Regarding `CN1C(=O)C(=Cc2ccccc2OS(=O)(=O)c2ccccc2)C(=O)N(C)C1=O`, the EC50 is > 11 µM (inactive).

For the compound `COCCN1CCC(CNCc2cn[nH]c2-c2ccc(C)c(C)c2)C1` (centres undefined), the EC50 was > 11 µM (inactive).

Consider `O=C1c2ccccc2C(=O)c2[nH]c(=O)[nH]c21`, for which the EC50 is > 11 µM (inactive).

As for `CC1=C(C(=O)OCc2ccccc2)C(c2ccccc2[N+](=O)[O-])NC(=O)N1C` (centres undefined), the EC50 is > 11 µM (inactive).

Regarding `COc1ccc(/C=C2\N=C(C)OC2=O)cc1OC`, the EC50 was > 11 µM (inactive).

On to `COC(=O)C1=C(C)N=C2SC(C#N)=C(N)N2C1c1cccc(OC)c1` (centres undefined), for which the EC50 is > 11 µM (inactive).

For the compound `Cc1cccn2c(=O)c3cc(S(=O)(=O)c4ccccc4)c(=N)n(CC4CCCO4)c3nc12` (centres undefined), the EC50 is > 11 µM (inactive).

As to `COc1ccc(/C=C/c2cc(C(F)(F)F)[nH]c(=O)n2)cc1OC`, the EC50 is > 11 µM (inactive).

For `COc1cc(NC(=O)CSc2nc3ncnc(N)c3[nH]2)c(C(=O)O)cc1OC`, the EC50 is > 11 µM (inactive).

On to `COC(=O)c1ccc(-n2c(C)cc(/C=N/n3cnnc3)c2C)cc1`, for which the EC50 was > 11 µM (inactive).

Turning to `CC(C)(O)[C@H]1O[C@H]2CC[C@@]3(C)[C@@](O)(CC[C@H]4Cc5c([nH]c6ccccc56)[C@@]43C)C2=CC1=O`, the EC50 was > 11 µM (inactive).

For the compound `CCc1ccccc1N1C(=O)/C(=C/c2ccc(N3CCN(C)CC3)o2)C(=O)NC1=S`, the EC50 was > 11 µM (inactive).

As for `O=C(O)Cc1ccc(O)c(O)c1`, the EC50 is > 11 µM (inactive).

As to `Cc1cccn2c(=O)c3cc(C(=O)NCCN4CCOCC4)c(=N)n(Cc4cccnc4)c3nc12`, the EC50 was > 11 µM (inactive).

As for `C/C(=N\Nc1ncnc2sc(C)c(C)c12)c1ccccn1`, the EC50 was > 11 µM (inactive).

Consider `CCn1c(=N)c(S(=O)(=O)c2ccccc2)cc2c(=O)n3ccccc3nc21`, for which the EC50 was > 11 µM (inactive).

On to `CCN1C(=O)/C(=C\N(C)C)NC1=S`, for which the EC50 was > 11 µM (inactive).

Turning to `CCOC(=O)c1c2ccc(OCC(=O)N/N=C/c3ccc(Cl)cc3)cc2n2ccccc12`, the EC50 is > 11 µM (inactive).

As for `O=C(O)CSc1cc(NS(=O)(=O)c2ccc(Cl)cc2)c2ccccc2c1O`, the EC50 was > 11 µM (inactive).

On to `Cc1nc(S/C(=C\c2ccc(-c3ccc(C(=O)O)c(Cl)c3)o2)C(=O)O)n[nH]1`, for which the EC50 is > 11 µM (inactive).

In the case of `O=c1/c(=C\c2ccc(O)cc2)sc2nc(-c3ccccc3)c(-c3ccccc3)n12`, the EC50 is > 11 µM (inactive).

Consider `O=C(NNC(=O)c1ccccc1O)c1ccco1`, for which the EC50 was > 11 µM (inactive).
